Tests used:
[1] = biological target: T1, CYP1A2 (Homo sapiens, UniProt P05177); assay: Inhibition of recombinant human CYP1A2 expressed in insect cells at 1 uM using EOMCC as substrate pretreated for 10 mins followed by substrate addition measured every minute for 15 mins in presence of NADP+ by fluorescence assay relative to control; details: probe EOMCC
T1 sequence (P05177 whole entry): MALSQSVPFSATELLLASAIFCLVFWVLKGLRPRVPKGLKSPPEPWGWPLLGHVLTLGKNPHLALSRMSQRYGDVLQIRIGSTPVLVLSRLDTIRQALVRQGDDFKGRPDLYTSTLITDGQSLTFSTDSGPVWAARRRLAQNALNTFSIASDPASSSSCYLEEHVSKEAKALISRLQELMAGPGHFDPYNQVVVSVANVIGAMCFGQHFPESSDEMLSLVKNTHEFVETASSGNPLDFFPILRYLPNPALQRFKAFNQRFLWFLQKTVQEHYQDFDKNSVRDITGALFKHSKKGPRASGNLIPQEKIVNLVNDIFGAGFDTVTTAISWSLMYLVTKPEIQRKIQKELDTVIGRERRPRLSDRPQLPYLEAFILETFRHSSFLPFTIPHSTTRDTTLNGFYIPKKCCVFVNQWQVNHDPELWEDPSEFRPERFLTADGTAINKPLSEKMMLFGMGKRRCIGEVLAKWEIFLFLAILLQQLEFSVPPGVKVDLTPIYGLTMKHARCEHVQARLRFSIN

[2] = biological target: T2, CYP3A4 (Homo sapiens, UniProt P08684); assay: Inhibition of recombinant human CYP3A4 expressed in insect cells at 100 uM using DBOMF as substrate pretreated for 10 mins followed by substrate addition measured every minute for 15 mins in presence of NADP+ by fluorescence assay relative to control; type: ADME; details: probe DBOMF
T2 sequence (P08684 whole entry): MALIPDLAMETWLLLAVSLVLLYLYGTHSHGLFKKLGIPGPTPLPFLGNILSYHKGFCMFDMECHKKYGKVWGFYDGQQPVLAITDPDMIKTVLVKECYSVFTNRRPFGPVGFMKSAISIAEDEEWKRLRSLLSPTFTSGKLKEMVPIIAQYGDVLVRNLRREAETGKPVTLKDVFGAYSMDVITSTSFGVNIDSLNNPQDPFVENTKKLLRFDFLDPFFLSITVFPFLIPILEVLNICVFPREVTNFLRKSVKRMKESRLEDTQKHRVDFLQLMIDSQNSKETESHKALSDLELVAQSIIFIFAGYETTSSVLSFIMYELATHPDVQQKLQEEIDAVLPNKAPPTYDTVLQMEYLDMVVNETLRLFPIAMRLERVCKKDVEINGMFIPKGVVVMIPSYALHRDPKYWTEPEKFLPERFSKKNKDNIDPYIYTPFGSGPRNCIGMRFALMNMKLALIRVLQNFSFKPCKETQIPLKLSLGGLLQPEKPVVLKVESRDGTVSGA

[3] = biological target: Cytochrome P450 3A4 (Homo sapiens, UniProt P08684); assay: Inhibition of recombinant human CYP3A4 expressed in insect cells using DBOMF as substrate pretreated for 10 mins followed by substrate addition measured every minute for 15 mins in presence of NADP+ by fluorescence assay; type: ADME
Sequence of Cytochrome P450 3A4 (P08684 whole entry): as above

[4] = biological target: T1, CYP1A2; assay: Inhibition of recombinant human CYP1A2 expressed in insect cells at >1 uM using EOMCC as substrate pretreated for 10 mins followed by substrate addition measured every minute for 15 mins in presence of NADP+ by fluorescence assay relative to control; type: ADME; details: probe EOMCC
[5] = biological target: T3, Cytochrome P450 1A2 (Homo sapiens, UniProt P05177); assay: Inhibition of recombinant human CYP1A2 expressed in insect cells using EOMCC as substrate pretreated for 10 mins followed by substrate addition measured every minute for 15 mins in presence of NADP+ by fluorescence assay; type: ADME
T3 sequence (P05177 whole entry): T1 sequence (P05177 whole entry)

[6] = biological target: T1, CYP1A2; assay: Inhibition of recombinant human CYP1A2 expressed in insect cells at <10 uM using EOMCC as substrate pretreated for 10 mins followed by substrate addition measured every minute for 15 mins in presence of NADP+ by fluorescence assay relative to control; type: ADME; details: probe EOMCC
[7] = biological target: T1, CYP1A2; assay: Inhibition of recombinant human CYP1A2 expressed in insect cells at 10 uM using EOMCC as substrate pretreated for 10 mins followed by substrate addition measured every minute for 15 mins in presence of NADP+ by fluorescence assay relative to control; details: probe EOMCC
[8] = biological target: T1, CYP1A2; assay: Inhibition of recombinant human CYP1A2 expressed in insect cells at 0.01 uM using EOMCC as substrate pretreated for 10 mins followed by substrate addition measured every minute for 15 mins in presence of NADP+ by fluorescence assay relative to control; details: probe EOMCC
[9] = biological target: T1, CYP1A2; assay: Inhibition of recombinant human CYP1A2 expressed in insect cells at 20 uM using EOMCC as substrate pretreated for 10 mins followed by substrate addition measured every minute for 15 mins in presence of NADP+ by fluorescence assay relative to control; details: probe EOMCC
[10] = biological target: T2, CYP3A4; assay: Inhibition of recombinant human CYP3A4 expressed in insect cells at >= 1 uM using DBOMF as substrate pretreated for 10 mins followed by substrate addition measured every minute for 15 mins in presence of NADP+ by fluorescence assay relative to control; details: probe DBOMF

Row | inhibition at 0.25 h, 100 µM [2] | IC50 [3] | IC50 [5] | inhibition at 0.25 h [6] | SMILES | other results
1 | 90% | 13.8 µM | 8.5 µM | < 50% | COc1ccc(CNc2c3c(nc4cc(Cl)ccc24)CCCC3)cc1OC | 
2 | 90% | 3.7 µM | 33 µM | < 50% | COc1ccc(CNc2c3c(nc4ccccc24)CCCC3)cc1OC | 

The next lines start with the compound.

Row | SMILES | inhibition at 0.25 h, 100 µM [2] | IC50 [3] | IC50 [5] | inhibition at 0.25 h [6] | other results
3 | O=c1cc(-c2ccccc2)oc2c1ccc1ccccc12 [ALPHA-NAPHTHOFLAVONE] |  |  |  |  | inhibition at 0.25 h, 1 µM [1]: > 80%
4 | Clc1ccc2c(NCc3ccccn3)c3c(nc2c1)CCCC3 | 90% | 9.1 µM | 0.24 µM |  | inhibition at 0.25 h [4]: > 80%
5 | Nc1c2c(nc3ccccc13)CCCC2 [TACRINE] | 55% |  | 1.5 µM |  | inhibition at 0.25 h, 10 µM [7]: 75%; inhibition at 0.25 h, 0.01 µM [8]: 14%; inhibition at 0.25 h, 20 µM [9]: 75%; inhibition at 0.25 h, 1 µM [1]: 45%
6 | COc1ccc(CCNc2c3c(nc4cc(Cl)ccc24)CCCC3)cc1OC |  |  | 22.3 µM | < 50% | 
7 | CC(=O)N1CCN(c2ccc(OCC3COC(Cn4ccnc4)(c4ccc(Cl)cc4Cl)O3)cc2)CC1 (configuration not stated) [KETOCONAZOLE] |  |  |  |  | inhibition at 0.25 h [10]: > 85%
